What was measured:
MCF-7TAX cells = assay: Cytoplasmic shrinkage by hematoxylin/eosin staining, MCF-7TAX; type: cell-based, human
Procedure: (§1) For staining with hematoxylin and eosin, cells were grown in a six-well culture plate with each well containing a Snowcoat X-Tra™ microscope slide (Surgipath Laboratories, MB) immersed in 3 ml of H21 medium. When the cells reached 50% confluence, they were treated with 0-300 nM calphostin C, followed by a 2 hour exposure of the cultures to fluorescent light as described above. After light activation, the cells were placed in a 37° C. humidified incubator with 5% CO2 and incubated for an additional 22 hours. The cells were then stained with hematoxylin and eosin using a previously described procedure. Briefly, the media was removed from cell cultures and the cells that remained adhered to the slides were washed with PBS, fixed in formalin:acetone (1:2) for 2 min, and allowed to air dry for 10 min. After washing with distilled water, 250 μl of hematoxylin solution (BDH Chemicals, Toronto, ON) was placed on each slide and allowed to incubate with the cells for 5 min. The slides were then washed with distilled water, Scott's tap water (20 g MgSO4.7H2O, 1.5 g NaHCO3 in 1 L H2O), and a final wash with distilled water. The cells on the slides were then stained for 5 min in 250 μl of eosin solution (100 ml of 1% eosin, 10 ml of 1% phyloxine, 4 ml of glacial acetic acid, and 780 ml of 95% ethanol). The cells were then dehydrated by washing three times in 95% ethanol and twice in 100% ethanol. The small slide was then mounted on a standard microscope glass slide, and 10 randomly selected fields were viewed at 100× magnification and photographed. For each concentration of calphostin C, the total number of dead cells in each field was ascertained and expressed relative to the total number of cells in the field.

[1] = tested on: MES-SA human uterine sarcoma cells; assay: Death and cytoplasmic vacuolization, MES-SA; type: cell-based; settings: data not shown
[2] = tested on: caspase-8, PARP and cytochrome C in MCF-7DOX cells; assay: Immunoblotting of apoptosis markers, MCF-7DOX; type: cell-based, human
Procedure: For preparation of mitochondrial and cytoplasmic cellular fractions, MCF-7, MCF-7TAX, and MCF-7DOX cells were grown in a monolayer to 70-90% confluence on 10 cm tissue culture plates. Twenty-four hours prior to extraction, the cells were treated with 50 nM light-activated calphostin C as described above. After this treatment, the cells were trypsinized, centrifuged at 1000 rpm in a Beckman GP centrifuge and washed with PBS. To the resulting cell pellet, 1 ml of ice-cold homogenization (HM) buffer was added. This buffer consisted of 85.55 g sucrose, 1.406 g MOPS, 0.292 g EDTA, and 1 ml ethanol per liter of solution, with a final pH of 7.2. Prior to use, 0.2 ml of 0.1 M PMSF, 1 Complete™ protease inhibitor tablet (Roche Diagnostics, Laval, QC), and 20 μl of 1 M DTT was added for 100 ml of HM buffer. Cells were then lysed 10 times by homogenization in a 2 ml dounce homogenizer. Nuclei in the lysate were then pelleted by centrifugation in a microfuge tube at 70 g for 10 minutes at 4° C. and the supernatant carefully removed. The supernatant was clarified by centrifugation at 1950 g for 10 minutes at 4° C. and the pellet (containing mitochondria) was resuspended in 50 μl of HM buffer. The remaining clarified supernatant was deemed the cytoplasmic fraction. […]

MCF-7 cells = assay: Cytoplasmic shrinkage by hematoxylin/eosin staining, MCF-7; type: cell-based, human
Procedure: as §1

With COc1c(C[C@@H](C)OC(=O)Oc2ccc(O)cc2)c2c3c(C[C@@H](C)OC(=O)c4ccccc4)c(OC)c(=O)c4c(O)cc(OC)c(c5c(OC)cc(O)c(c1=O)c52)c43 [calphostin C] the “concentration required for complete cytoplasmic shrinkage” value (MCF-7TAX cells) was 300 nM, the “percentage of cells exhibiting cytoplasmic shrinkage” value (shortened to “percentage”) (MCF-7TAX cells; 25 nM calphostin C) was “remained unchanged” and the “percentage” value (MCF-7TAX cells; 50 nM calphostin C) was 23%. For the same compound, the “induction of death and cytoplasmic vacuolization” value [1] was “induce both death and cytoplasmic vacuolization”, the “caspase-8 and PARP cleavage (protein levels)” value ([2]; light-activated calphostin C, whole cell extracts) was “did not result in any change” and the “release of cytochrome C from mitochondria” value ([2]; mitochondrial and cytoplasmic fractions) was “no clear evidence for the release of cytochrome C”. For the same compound, the “concentration required for complete cytoplasmic shrinkage” value (MCF-7 cells) was 300 nM, the “percentage” value (MCF-7 cells; 25 nM calphostin C, 2 h light, 24 h) was 20% and the “percentage” value (MCF-7 cells; 50 nM calphostin C) was 35%.

From US7371780B2, “Use of calphostin C to treat drug-resistant tumor cells” (priority 2003, dated 2008)
